ChEMBL document CHEMBL1128092, “Potent, orally bioavailable HIV-1 protease inhibitors containing noncoded D-amino acids” (Bioorg Med Chem Lett, 1995)
pIC50: −log10 of the molar value.

How the values were obtained:
CCRF-CEM [1] = assay: (§1) Antiviral activity to inhibit viral replication of HIV-1 infected CEM cells; format: functional, cell-based; conditions: Homo sapiens
CCRF-CEM [2] = assay: as §1; format: functional; conditions: Homo sapiens
[3] = target: Human immunodeficiency virus type 1 protease (Human immunodeficiency virus 1, UniProt Q72874); assay: Inhibitory activity against HIV-1 protease

pIC50 (CCRF-CEM [1])	pIC50 [3]	Compound	IC95 (CCRF-CEM [2])
8.72	8.77	CC(=O)N[C@H](CS(=O)(=O)c1cccc2cccnc12)C(=O)N[C@@H](Cc1ccccc1)[C@H](O)CN1C[C@H]2CCCC[C@H]2C[C@H]1C(=O)NC(C)(C)C	64 nM
7.15	–	CC(=O)N[C@H](CS(=O)(=O)c1ccc(F)cc1)C(=O)N[C@@H](Cc1ccccc1)[C@H](O)CN1C[C@H]2CCS[C@H]2C[C@H]1C(=O)NC(C)(C)C	730 nM
8.49	9.30	CC(C)(C)NC(=O)[C@@H]1C[C@@H]2CCCC[C@@H]2CN1C[C@@H](O)[C@H](Cc1ccccc1)NC(=O)[C@@H](CS(=O)(=O)c1ccc2ccccc2c1)NS(C)(=O)=O	10 nM
5.00	8.00	CC(C)CN(C[C@@H](O)[C@H](Cc1ccccc1)NC(=O)[C@@H](CS(=O)(=O)c1ccc(F)cc1)NS(C)(=O)=O)C(=O)NC(C)(C)C	21000 nM
6.85	9.38	CC(=O)N[C@H](CS(=O)(=O)c1cccc2cccnc12)C(=O)N[C@@H](Cc1ccccc1)[C@H](O)CN1C[C@H]2CCS[C@H]2C[C@H]1C(=O)NC(C)(C)C	300 nM
7.74	9.68	CC(C)(C)NC(=O)[C@@H]1C[C@@H]2SCC[C@@H]2CN1C[C@@H](O)[C@H](Cc1ccccc1)NC(=O)[C@@H](CS(=O)(=O)c1cccc2cccnc12)NC(=O)C(F)(F)F	62 nM
4.77	7.07	CC(C)CN(C[C@@H](O)[C@H](Cc1ccccc1)NC(=O)[C@@H](CSc1ccc(F)cc1)NS(C)(=O)=O)C(=O)NC(C)(C)C	36000 nM
7.82	> 9.70	CC(C)(C)NC(=O)[C@@H]1C[C@@H]2SCC[C@@H]2CN1C[C@@H](O)[C@H](Cc1ccccc1)NC(=O)[C@@H](CS(=O)(=O)c1ccc(F)cc1)NC(=O)C(F)(F)F	58 nM
7.77	8.70	CC(C)(C)NC(=O)[C@@H]1C[C@@H]2CCCC[C@@H]2CN1C[C@@H](O)[C@H](Cc1ccccc1)NC(=O)[C@@H](CS(=O)(=O)c1ccc(F)cc1)NS(C)(=O)=O	54 nM
8.04	9.22	CC(C)(C)NC(=O)[C@@H]1C[C@@H]2CCCC[C@@H]2CN1C[C@@H](O)[C@H](Cc1ccccc1)NC(=O)[C@@H](C[S+]([O-])c1ccc(F)cc1)NS(C)(=O)=O (some centres undefined)	31 nM
7.15	8.29	CC(C)(C)NC(=O)[C@@H]1C[C@@H]2CCCC[C@@H]2CN1C[C@@H](O)[C@H](Cc1ccccc1)NC(=O)[C@@H](CSc1ccc2ccccc2c1)NS(C)(=O)=O	1900 nM
8.42	9.40	CC(C)(C)NC(=O)[C@@H]1C[C@@H]2CCCC[C@@H]2CN1C[C@@H](O)[C@H](Cc1ccccc1)NC(=O)[C@@H](C[S+]([O-])c1ccc2ccccc2c1)NS(C)(=O)=O (some centres undefined)	8.2 nM
7.57	> 9.70	CC(C)(C)NC(=O)[C@@H]1C[C@@H]2SCC[C@@H]2CN1C[C@@H](O)[C@H](Cc1ccccc1)NC(=O)[C@@H](CS(=O)(=O)c1ccc2ccccc2c1)NS(C)(=O)=O	85 nM
7.85	8.68	CC(C)CN(C[C@@H](O)[C@H](Cc1ccccc1)NC(=O)[C@@H](C[S+]([O-])c1ccc2ccccc2c1)NS(C)(=O)=O)C(=O)NC(C)(C)C (some centres undefined)	62 nM
8.72	9.30	CC(=O)N[C@H](CS(=O)(=O)c1ccc2ccccc2c1)C(=O)N[C@@H](Cc1ccccc1)[C@H](O)CN1C[C@H]2CCS[C@H]2C[C@H]1C(=O)NC(C)(C)C	23 nM
6.74	8.00	CC(C)(C)NC(=O)[C@@H]1C[C@@H]2SCC[C@@H]2CN1C[C@@H](O)[C@H](CSc1ccccc1)NC(=O)[C@@H](CS(=O)(=O)c1ccc(F)cc1)NC(=O)C(F)(F)F	840 nM
8.02	8.80	CC(=O)N[C@H](CS(=O)(=O)c1ccc2ccccc2c1)C(=O)N[C@@H](Cc1ccccc1)[C@H](O)CN1C[C@H]2CCCC[C@H]2C[C@H]1C(=O)NC(C)(C)C	22 nM
6.82	7.62	CC(C)(C)NC(=O)[C@@H]1C[C@@H]2CCCC[C@@H]2CN1C[C@@H](O)[C@H](Cc1ccccc1)NC(=O)[C@@H](CSc1ccc(F)cc1)NS(C)(=O)=O	550 nM
5.33	7.30	CC(C)CN(C[C@@H](O)[C@H](Cc1ccccc1)NC(=O)[C@@H](CSc1ccc2ccccc2c1)NS(C)(=O)=O)C(=O)NC(C)(C)C	9900 nM
7.11	8.22	CC(=O)N[C@H](CSCc1ccccc1)C(=O)N[C@@H](Cc1ccccc1)[C@H](O)CN1C[C@H]2CCCC[C@H]2C[C@H]1C(=O)NC(C)(C)C	305 nM
7.24	8.74	CC(C)(C)NC(=O)[C@@H]1C[C@@H]2SCC[C@@H]2CN1C[C@@H](O)[C@H](CSc1ccccc1)NC(=O)[C@@H](CS(=O)(=O)c1ccc2ccccc2c1)NC(=O)C(F)(F)F	240 nM
8.34	> 9.70	CC(C)(C)NC(=O)[C@@H]1C[C@@H]2SCC[C@@H]2CN1C[C@@H](O)[C@H](Cc1ccccc1)NC(=O)[C@@H](CS(=O)(=O)c1ccc2ccccc2c1)NC(=O)C(F)(F)F	32 nM
7.24	8.74	CC(=O)N[C@H](CS(=O)(=O)c1ccc(F)cc1)C(=O)N[C@@H](CSc1ccccc1)[C@H](O)CN1C[C@H]2CCS[C@H]2C[C@H]1C(=O)NC(C)(C)C	180 nM
7.37	9.66	CC(C)(C)NC(=O)[C@@H]1C[C@@H]2SCC[C@@H]2CN1C[C@@H](O)[C@H](Cc1ccccc1)NC(=O)[C@@H](CS(=O)(=O)c1ccc(F)cc1)NS(C)(=O)=O	190 nM
7.14	9.15	CC(C)(C)NC(=O)[C@@H]1C[C@@H]2SCC[C@@H]2CN1C[C@@H](O)[C@H](Cc1ccccc1)NC(=O)[C@@H](CS(=O)(=O)c1cccc2cccnc12)NS(C)(=O)=O	250 nM
